1 molecule from patent publication US12525646B2, “Ionic cyclic nitroxyl radical oligomers” (Wisconsin Alumni Research Foundation, priority 2021, dated 2026) can be followed below.

Type in all cases: physicochemical
Data set [1] can be described thus: Permeability through AMVN anion-exchange membrane. The following applies: low ionic-conductivity AMVN membrane. An excerpt: Crossover of the TEMPO species is critical to RFB lifetime as it lowers the catholyte capacity through material loss and the anolyte capacity through chemical/electrochemical side reactions.
Data set [2] can be described thus: Electrochemical impedance spectroscopy (PEIS), Z-fitting to ideal Randle equivalent circuit. Conditions: PEIS Z-fit.
The nature of data set [3]: Viscosity of solutions versus volumetric capacity. Conditions: compared with TMAP-TEMPO; reduced (uncharged) state. From the text:
When determining the maximum cycling concentration with the water-miscible i-TEMPODs, the active molecule solubility no longer limits volumetric capacity as the interaction between the dissolved species and the water molecules are very thermodynamically favorable, and each TEMPO dimer is able to dissolve with a minimal amount of coordinated water. Instead, the cycling concentration will be limited by the electrolyte viscosity and its relation to pumping energy cost. The viscosity of representative TEMPO monomer and dimer solutions was experimentally measured at various volumetric capacities in their reduced (uncharged) states. FIG. 35A compares the viscosity of the i-TEMPODs to previously known TEMPO monomers, which are designated “OH”, “Nine”, and “TMAP”. Descriptions of these monomers can be found in: T. Liu, X. Wei, Z. Nie, V. Sprenkle, W. Wang, A Total Organic Aqueous Redox Flow Battery Employing a Low Cost and Sustainable Methyl Viologen Anolyte and 4-HO-TEMPO Catholyte. Adv. Energy Mater. 6 (2016); T. Janoschka, N. Martin, M. D. Hager, U. S. Schubert, An Aqueous Redox-Flow Battery with High Capacity and Power. The TEMPTMA/MV System. Angew. Chemie—Int. Ed. 55, 14427-14430 (2016); and Y. Liu, M. A. Goulet, L. Tong, Y. Liu, Y. Ji, L. Wu, R. G. Gordon, M. J. Aziz, Z. Yang, T. Xu, A Long-Lifetime All-Organic Aqueous Flow Battery Utilizing TMAP-TEMPO Radical. Chem. 5, 1861-1870 (2019). […]

With `CC1(C)CC([N+](C)(C)C2CC(C)(C)N([O])C(C)(C)C2)CC(C)(C)N1[O]` [i-TEMPOD-1], the “crossover with the AMVN membrane” value in data set [1] is given as “no detectible crossover”. In addition, in data set [2], the C1 was found to be 264.7 uF, the Rct is 17.43 Ohm and the Ru was determined as 27.54 Ohm. The “viscosity at a given volumetric capacity” value in data set [3] was “nearly equal viscosity”.
